Experimental data taken from article PMC4640066 (Nature Communications, 2015).

Tests used:
[1] = system: HeLa cells expressing EB3-EGFP (interphase); test: EB3-EGFP signal tracking, interphase cells; assay type: cell-based, human; conditions: 15 min; for Track length / Track lifetime / Velocity: interphase HeLa EB3-EGFP, mean±s.d.; for Track numbers: interphase, from a 144-μm^2 area inside the cell
Description: A HeLa ‘Kyoto' cell line stably expressing EB3-EGFP (a kind gift from Dr J. Ellenberg) was maintained in DMEM+GlutaMAX (Gibco) supplemented with 10% FBS, 2 mM L-glutamine, 100 U ml^−1 penicillin, 100 μg ml^−1 streptomycin, 1 mM sodium pyruvate and 0.5 mg ml^−1 G418. Cells were seeded into eight-well Lab-Tek chambers (Nunc, Rochester, NY) for 24-h prior imaging. For imaging, the medium was exchanged to Live Cell Imaging Solution (Molecular Probes Life Technologies) supplemented as described above and containing various concentrations of AG1 or gatastatin. Interphase cells were incubated with drugs for 15 min and mitotic cells were treated as described in Fig. 4c. Then, EB3 tracks were observed under a PerkinElmer UltraVIEW ERS Spinning Disk microscope (Software: UltraVIEW ERS Imaging Suite) equipped with a Plan-APOCHROMAT × 100/1.4 Oil DIC objective, a Confocal Scanner Unit (Yokogawa CSU 22), a Hamamatsu EM CCD camera (C9100-50) and a 488-nm Argon laser at 37 °C, and time-lapse sequences were performed for 60 s with a 400-ms interval. Automatic analysis of EB3-EGFP signal tracks was performed with ImageJ (http://imagej.nih.gov/ij/) and Matlab (Mathworks) as described.

HeLa cells = test: Anaphase spindle elongation, time-lapse anaphase duration; assay type: cell-based, human; conditions: 30 μM, after MG132 washout, 1 μM reversine, control 18.6 min
Description: HeLa cells expressing mCherry-H2B and EGFP-α-tubulin, HeLa ‘Kyoto' cell line stably expressing CEP55-LAPtag (a kind gift from Dr A.A. Hyman) and HeLa cells expressing RFP-H2B and GFP-LifeAct (a kind gift from Dr J. Ellenberg) were cultured in DMEM+GlutaMAX (Gibco) supplemented with 10% FBS, 100 U ml^−1 penicillin, 100 μg ml^−1 streptomycin and 1 mM sodium pyruvate in a humidified atmosphere containing 5% CO2. To observe the transition from metaphase to anaphase, telophase and cytokinesis, cells were arrested at metaphase by sequential treatment of STLC and MG132. After MG132 removal by washing of cells with medium three times, the medium was changed to Live Cell Imaging Solution (Molecular Probes Life Technologies) supplemented as described above containing 1 μM of MPS1 inhibitor reversine and either DMSO or 30 μM of gatastatin. Time-lapse observation was performed at 37 °C using the DeltaVision Olympus IX71 microscope (Applied Precision) equipped with CoolSNAP HQ camera (Photometrics). Images were taken every 3 min with 12 z-stacks (1 μm per stack) for 3 h. The anaphase duration (between chromosome separation and start of midbody formation) was calculated.

[2] = target: T1, porcine brain α/β-tubulin (Sus scrofa, UniProt P02550+P02554); test: In vitro MT polymerization assay (glutamate, paclitaxel or Tau stimulated); assay type: biochemical; conditions: absence of γ-tubulin; absorbance at 350 nm, 37 °C
T1 construct: α/β-Tubulin was purified from porcine brain; from tissue; host or cells: porcine brain
T1 sequence (P02550 whole entry): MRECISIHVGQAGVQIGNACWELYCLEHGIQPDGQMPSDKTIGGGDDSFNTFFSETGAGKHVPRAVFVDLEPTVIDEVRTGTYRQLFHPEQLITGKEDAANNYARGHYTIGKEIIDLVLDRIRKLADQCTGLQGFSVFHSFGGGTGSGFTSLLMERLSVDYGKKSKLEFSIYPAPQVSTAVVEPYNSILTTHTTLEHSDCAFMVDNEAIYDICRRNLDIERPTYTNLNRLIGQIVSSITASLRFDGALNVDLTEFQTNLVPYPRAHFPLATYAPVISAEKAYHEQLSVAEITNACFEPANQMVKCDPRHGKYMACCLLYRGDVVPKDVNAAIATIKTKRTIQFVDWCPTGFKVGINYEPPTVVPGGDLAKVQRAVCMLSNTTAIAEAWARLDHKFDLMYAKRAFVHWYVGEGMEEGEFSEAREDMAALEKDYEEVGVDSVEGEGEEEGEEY
T1 sequence (P02554 whole entry): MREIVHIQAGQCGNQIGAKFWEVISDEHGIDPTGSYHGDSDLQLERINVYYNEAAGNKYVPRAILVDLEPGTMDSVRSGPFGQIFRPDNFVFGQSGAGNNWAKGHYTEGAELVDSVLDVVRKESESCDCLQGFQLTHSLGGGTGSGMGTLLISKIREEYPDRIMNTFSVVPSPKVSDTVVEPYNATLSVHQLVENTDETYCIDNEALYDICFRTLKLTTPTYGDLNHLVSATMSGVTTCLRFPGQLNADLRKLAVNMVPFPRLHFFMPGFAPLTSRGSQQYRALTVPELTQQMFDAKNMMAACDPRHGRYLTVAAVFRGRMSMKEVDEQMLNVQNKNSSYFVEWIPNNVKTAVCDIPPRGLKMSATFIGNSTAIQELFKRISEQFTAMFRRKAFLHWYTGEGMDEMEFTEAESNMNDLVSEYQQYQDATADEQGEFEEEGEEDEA
Description: For glutamate-stimulated MT polymerization, 1 mg ml^−1 porcine brain α/β-tubulin was mixed with glutamate (final concentration 1 M) and GTP (final concentration 1 mM) in RB buffer on ice. For paclitaxel-stimulated MT polymerization, 1 mg ml^−1 porcine brain α/β-tubulin was mixed with paclitaxel (final concentration 10 μM) and GTP (final concentration 1 mM) in RB buffer on ice. For recombinant Tau protein-stimulated MT polymerization, 1 mg ml^−1 α/β-tubulin purified from porcine brain and Tau protein were mixed with GTP (final concentration 1 mM) in RB buffer on ice. For γ-TuSC-stimulated MT polymerization, γ-TuSC was mixed with GTP (final concentration 1 mM). One of the compounds and α/β-tubulin were then added. Samples were transferred into cuvettes. Tubulin polymerization was monitored using the absorbance at 350 nm at 37 °C using a thermostatic spectrophotometer (Beckman Coulter).

SMILES: COc1cc2c(=O)c(-c3cc(OC)c4c(c3OC)OCO4)coc2cc1OCc1ccccc1 [Gatastatin, O^7-demethylbenzyl AG1]
- Track length ([1]; 3 μM): 1.03±0.16 μm
- Track lifetime ([1]; 3 μM): 3.45 ± 0.71 s
- Velocity ([1]; 3 μM): 12.49±1.67 μm min^−1
- Track numbers ([1]; 3 μM): 94±27
- Track length ([1]; 10 μM): 0.84±0.10 μm
- Track lifetime ([1]; 10 μM): 3.67 ± 0.62 s
- Velocity ([1]; 10 μM): 10.03±0.99 μm min^−1
- Track numbers ([1]; 10 μM): 83±30
- Track length ([1]; 30 μM): 0.71±0.08 μm
- Track lifetime ([1]; 30 μM): 3.84 ± 0.50 s
- Velocity ([1]; 30 μM): 8.43±0.81 μm min^−1
- Track numbers ([1]; 30 μM): 89±32
- Anaphase duration (HeLa cells): 32.4 min
- Effect on MT polymerization in vitro induced by glutamate, paclitaxel or recombinant Tau protein [2]: failed to impair MT polymerization in vitro
